Data published in patent publication US12139520B2 (priority 2020, dated 2024).
pEC50: −log10 of the molar value. One block for each molecule: values may come before it. Numbered stars: 1 amine (or outer) side, 2 acyl side, 3 side chain; on linkers, the order of the positions; unused ones are H or OH. Bridge positions count the residues as written; N and C are the ends. Square brackets hold non-standard residues; d marks the D form. Side chains are listed from the residue outwards. Peptide text beside a SMILES is read from it. * marks the point of attachment. C20 diacid = O=C(O)CCCCCCCCCCCCCCCCCCC(=O)*; γGlu = O=C(O)[C@H](CCC(=O)[*:2])N[*:1]; Hyp = O=C(O)[C@@H]1C[C@@H](O)CN1; AEEA = NCCOCCOCC(=O)O

Tests used:
hAM1 receptor = hAM1 receptor (Homo sapiens, UniProt O60895+Q16602); assay: cAMP assay for in vitro receptor activation, hAM1-R; type: cell-based; conditions: cAMP assay, hAM1 receptor; read-out: hAM1R EC50
hAM1 receptor, sequence (Q16602 23-461): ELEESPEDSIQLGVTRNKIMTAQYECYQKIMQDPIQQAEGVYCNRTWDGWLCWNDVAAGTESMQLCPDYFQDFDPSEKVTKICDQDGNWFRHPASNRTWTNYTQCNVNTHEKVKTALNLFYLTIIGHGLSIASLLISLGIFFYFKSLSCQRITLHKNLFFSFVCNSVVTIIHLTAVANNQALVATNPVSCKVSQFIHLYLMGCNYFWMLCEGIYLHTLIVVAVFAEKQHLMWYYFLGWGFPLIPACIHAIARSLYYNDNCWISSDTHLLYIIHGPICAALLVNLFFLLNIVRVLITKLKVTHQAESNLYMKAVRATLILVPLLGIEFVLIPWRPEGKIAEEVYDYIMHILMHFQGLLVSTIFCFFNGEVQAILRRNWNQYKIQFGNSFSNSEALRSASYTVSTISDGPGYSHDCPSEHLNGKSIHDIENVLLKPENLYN
hAM1 receptor, sequence (O60895 43-175 partner): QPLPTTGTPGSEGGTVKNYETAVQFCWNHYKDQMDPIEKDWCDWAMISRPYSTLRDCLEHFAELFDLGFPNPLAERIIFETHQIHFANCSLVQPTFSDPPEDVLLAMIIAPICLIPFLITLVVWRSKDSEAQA
Method in brief: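 A subcloned monoclonal line stably expressing hAM1 receptor is thawed and plated at 8000 cells/well. The assay buffer is DPBS with 0.05% casein and 0.5 mM IBMX, and receptor activation is followed by cAMP levels.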

hAMY3 receptor = biological target: T1, hAMY3 receptor (Homo sapiens, UniProt O60896+P30988); assay: cAMP assay for in vitro receptor activation, hAMY3-R; type: cell-based; conditions: cAMP assay, hAMY3 receptor; read-out: hAMY3R EC50
T1 sequence (P30988 25-474): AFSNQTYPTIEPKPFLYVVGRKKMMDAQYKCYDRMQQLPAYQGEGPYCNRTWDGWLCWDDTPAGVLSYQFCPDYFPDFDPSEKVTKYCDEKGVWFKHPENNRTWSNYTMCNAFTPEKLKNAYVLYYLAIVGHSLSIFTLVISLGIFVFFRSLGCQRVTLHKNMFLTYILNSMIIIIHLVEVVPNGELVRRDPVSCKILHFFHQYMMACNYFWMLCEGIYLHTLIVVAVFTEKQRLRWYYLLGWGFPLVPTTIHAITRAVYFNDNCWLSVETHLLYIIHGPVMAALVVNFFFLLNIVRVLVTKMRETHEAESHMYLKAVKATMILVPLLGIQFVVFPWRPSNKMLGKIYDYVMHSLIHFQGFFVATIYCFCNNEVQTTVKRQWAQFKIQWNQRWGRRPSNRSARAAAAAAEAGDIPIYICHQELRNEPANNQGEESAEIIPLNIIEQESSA
T1 sequence (O60896 24-148 partner): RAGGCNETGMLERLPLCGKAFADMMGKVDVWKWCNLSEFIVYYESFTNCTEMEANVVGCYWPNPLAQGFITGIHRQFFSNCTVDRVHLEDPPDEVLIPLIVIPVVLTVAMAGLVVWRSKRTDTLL
Method in brief: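 Graded compound concentrations were applied for 30 min at room temperature to stably hAMY3-expressing cells in DPBS, 0.05% casein, 0.5 mM IBMX; cAMP detected by TR-FRET.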

Compound: CC[C@H](C)[C@H](NC(=O)[C@H](CCC(N)=O)NC(=O)[C@H](CCC(=O)O)NC(=O)[C@H](C)NC(=O)[C@H](CC(C)C)NC(=O)[C@H](CCCNC(=N)N)NC(=O)[C@H](CCC(N)=O)NC(=O)[C@@H](NC(=O)[C@@H](NC(=O)[C@@H]1CSSC[C@H](NC(=O)[C@@H](N)CCCCN)C(=O)N[C@@H](CC(N)=O)C(=O)N[C@@H]([C@@H](C)O)C(=O)N[C@@H](C)C(=O)N[C@@H]([C@@H](C)O)C(=O)N1)[C@@H](C)O)C(C)C)C(=O)N[C@@H](Cc1ccc(O)cc1)C(=O)N[C@@H](CCC(N)=O)C(=O)N[C@@H](Cc1ccccc1)C(=O)N[C@H](C(=O)N[C@@H](CC(=O)O)C(=O)N[C@@H](CCCCN)C(=O)N[C@@H](CC(=O)O)C(=O)N[C@@H](CCCCN)C(=O)N[C@@H](CC(=O)O)C(=O)N[C@@H](CC(N)=O)C(=O)N[C@H](C(=O)N[C@@H](CO)C(=O)N1CCC[C@H]1C(=O)N1CCC[C@H]1C(=O)N[C@H](C(=O)N[C@@H](CC(N)=O)C(=O)N[C@H](C(=O)NCC(=O)N[C@@H](CO)C(=O)N[C@@H](CC(N)=O)C(=O)NCC(=O)N1C[C@H](O)C[C@H]1C(N)=O)C(C)C)[C@@H](C)O)C(C)C)[C@@H](C)O [compound 66] (H-KCNTATCTVQRLAEQIYQFTDKDKDNVSPPTNVGSNG[Hyp]-NH2; disulfide 2-7)
pEC50 (hAM1 receptor): < 5.30
pEC50 (hAMY3 receptor): 10.92

Compound: CC[C@H](C)[C@H](NC(=O)[C@H](CCC(N)=O)NC(=O)[C@H](Cc1c[nH]cn1)NC(=O)[C@H](C)NC(=O)[C@H](CC(C)C)NC(=O)[C@H](CCCNC(=N)N)NC(=O)[C@H](CCC(N)=O)NC(=O)[C@@H](NC(=O)[C@@H](NC(=O)[C@@H]1CSSC[C@H](NC(=O)[C@H](CCCCN)NC(=O)CC[C@H](NC(=O)CCCCCCCCCCCCCCCCCCC(=O)O)C(=O)O)C(=O)N[C@@H](CC(N)=O)C(=O)N[C@@H](Cc2ccccc2)C(=O)N[C@@H](C)C(=O)N[C@@H]([C@@H](C)O)C(=O)N1)[C@@H](C)O)C(C)C)C(=O)N[C@@H](Cc1ccc(O)cc1)C(=O)N[C@@H](CCC(N)=O)C(=O)N[C@@H](Cc1ccccc1)C(=O)N[C@H](C(=O)N[C@@H](CC(=O)O)C(=O)N[C@@H](CCCCN)C(=O)N[C@@H](CC(=O)O)C(=O)N[C@@H](CCCCN)C(=O)N[C@@H](CC(=O)O)C(=O)N[C@@H](CC(N)=O)C(=O)N[C@H](C(=O)N[C@@H](C)C(=O)N1CCC[C@H]1C(=O)N[C@@H](CCCNC(=N)N)C(=O)N[C@H](C(=O)N[C@@H](CCC(=O)O)C(=O)N[C@H](C(=O)NCC(=O)N[C@@H](CO)C(=O)N[C@@H](CC(N)=O)C(=O)NCC(=O)N1C[C@H](O)C[C@H]1C(N)=O)C(C)C)[C@@H](C)O)C(C)C)[C@@H](C)O [compound 67] ({C20 diacid-γGlu}-KCNFATCTVQRLAHQIYQFTDKDKDNVAPRTEVGSNG[Hyp]-NH2; disulfide 2-7)
pEC50 (hAM1 receptor): 6.93
pEC50 (hAMY3 receptor): 10.89

Compound: CC[C@H](C)[C@H](NC(=O)[C@H](CCC(N)=O)NC(=O)[C@H](CCC(=O)O)NC(=O)[C@H](C)NC(=O)[C@H](CC(C)C)NC(=O)[C@H](CCCNC(=N)N)NC(=O)[C@H](CCC(N)=O)NC(=O)[C@@H](NC(=O)[C@@H](NC(=O)[C@@H]1CSSC[C@H](NC(=O)[C@H](CCCCN)NC(=O)CC[C@H](NC(=O)CCCCCCCCCCCCCCCCCCC(=O)O)C(=O)O)C(=O)N[C@@H](CC(N)=O)C(=O)N[C@@H]([C@@H](C)O)C(=O)N[C@@H](C)C(=O)N[C@@H]([C@@H](C)O)C(=O)N1)[C@@H](C)O)C(C)C)C(=O)N[C@@H](Cc1ccc(O)cc1)C(=O)N[C@@H](CCC(N)=O)C(=O)N[C@@H](Cc1ccccc1)C(=O)N[C@H](C(=O)N[C@@H](CC(=O)O)C(=O)N[C@@H](CCCCN)C(=O)N[C@@H](CC(=O)O)C(=O)N[C@@H](CCCCN)C(=O)N[C@@H](CC(=O)O)C(=O)N[C@@H](CC(N)=O)C(=O)N[C@H](C(=O)N[C@@H](C)C(=O)N1CCC[C@H]1C(=O)N1CCC[C@H]1C(=O)N[C@H](C(=O)N[C@@H](CCC(N)=O)C(=O)N[C@H](C(=O)NCC(=O)N[C@@H](CO)C(=O)N[C@@H](CC(N)=O)C(=O)NCC(=O)N1C[C@H](O)C[C@H]1C(N)=O)C(C)C)[C@@H](C)O)C(C)C)[C@@H](C)O [compound 73] ({C20 diacid-γGlu}-KCNTATCTVQRLAEQIYQFTDKDKDNVAPPTQVGSNG[Hyp]-NH2; disulfide 2-7)
pEC50 (hAM1 receptor): < 5.30
pEC50 (hAMY3 receptor): 10.89

Other lines, results leading:

pEC50 (hAM1 receptor): < 5.30
pEC50 (hAMY3 receptor): 10.89
Compound: CC[C@H](C)[C@H](NC(=O)[C@H](CCC(N)=O)NC(=O)[C@H](Cc1c[nH]cn1)NC(=O)[C@H](C)NC(=O)[C@H](CC(C)C)NC(=O)[C@H](CCCNC(=N)N)NC(=O)[C@H](CCC(N)=O)NC(=O)[C@@H](NC(=O)[C@@H](NC(=O)[C@@H]1CSSC[C@H](NC(=O)[C@H](CCCCN)NC(=O)CC[C@H](NC(=O)CCCCCCCCCCCCCCCCCCC(=O)O)C(=O)O)C(=O)N[C@@H](CC(N)=O)C(=O)N[C@@H]([C@@H](C)O)C(=O)N[C@@H](C)C(=O)N[C@@H]([C@@H](C)O)C(=O)N1)[C@@H](C)O)C(C)C)C(=O)N[C@@H](C)C(=O)N[C@@H](CCC(N)=O)C(=O)N[C@@H](Cc1ccc(O)cc1)C(=O)N[C@H](C(=O)N[C@@H](CC(=O)O)C(=O)N[C@@H](CCCCN)C(=O)N[C@@H](CC(=O)O)C(=O)N[C@@H](CCCCN)C(=O)N[C@@H](CC(=O)O)C(=O)N[C@@H](CC(N)=O)C(=O)N[C@H](C(=O)N[C@@H](C)C(=O)N1CCC[C@H]1C(=O)N1CCC[C@H]1C(=O)N[C@H](C(=O)N[C@@H](CC(N)=O)C(=O)N[C@H](C(=O)NCC(=O)N[C@@H](CO)C(=O)N[C@@H](CC(N)=O)C(=O)NCC(=O)N1C[C@H](O)C[C@H]1C(N)=O)C(C)C)[C@@H](C)O)C(C)C)[C@@H](C)O [compound 71] ({C20 diacid-γGlu}-KCNTATCTVQRLAHQIAQYTDKDKDNVAPPTNVGSNG[Hyp]-NH2; disulfide 2-7)

pEC50 (hAM1 receptor): < 5.30
pEC50 (hAMY3 receptor): 10.89
Compound: CC[C@H](C)[C@H](NC(=O)[C@H](CCC(N)=O)NC(=O)[C@H](CCCCNC(=O)COCCOCCNC(=O)COCCOCCNC(=O)CC[C@H](NC(=O)CCCCCCCCCCCCCCCCCCC(=O)O)C(=O)O)NC(=O)[C@H](C)NC(=O)[C@H](CC(C)C)NC(=O)[C@H](CCCNC(=N)N)NC(=O)[C@H](CCC(N)=O)NC(=O)[C@@H](NC(=O)[C@@H](NC(=O)[C@@H]1CSSC[C@H](NC(=O)[C@@H](N)CCCCN)C(=O)N[C@@H](CC(N)=O)C(=O)N[C@@H]([C@@H](C)O)C(=O)N[C@@H](C)C(=O)N[C@@H]([C@@H](C)O)C(=O)N1)[C@@H](C)O)C(C)C)C(=O)N[C@@H](Cc1ccc(O)cc1)C(=O)N[C@@H](CCC(N)=O)C(=O)N[C@@H](Cc1ccccc1)C(=O)N[C@H](C(=O)N[C@@H](CC(=O)O)C(=O)N[C@@H](CCCCN)C(=O)N[C@@H](CC(=O)O)C(=O)N[C@@H](CCCCN)C(=O)N[C@@H](CC(=O)O)C(=O)N[C@@H](CC(N)=O)C(=O)N[C@H](C(=O)N[C@@H](C)C(=O)N1CCC[C@H]1C(=O)N1CCC[C@H]1C(=O)N[C@H](C(=O)N[C@@H](CC(N)=O)C(=O)N[C@H](C(=O)NCC(=O)N[C@@H](CO)C(=O)N[C@@H](CC(N)=O)C(=O)NCC(=O)N1C[C@H](O)C[C@H]1C(N)=O)C(C)C)[C@@H](C)O)C(C)C)[C@@H](C)O [compound 74] (H-KCNTATCTVQRLAK([AEEA-AEEA-γGlu-C20 diacid])QIYQFTDKDKDNVAPPTNVGSNG[Hyp]-NH2; disulfide 2-7; N-terminus assumed)
